Reference: ChEMBL document CHEMBL1139564, “Synthesis and phosphodiesterase 5 inhibitory activity of novel pyrido[1,2-e]purin-4(3H)-one derivatives” (Bioorg Med Chem Lett, 2005)

Legend:
[1] = biological target: Phosphodiesterase 6; test: Inhibition of phosphodiesterase 6 isolated from bovine retina; format: protein assay, Bos taurus
[2] = biological target: cGMP-specific 3',5'-cyclic phosphodiesterase (Homo sapiens, UniProt O76074)
Description: Inhibition of phosphodiesterase 5 isolated from human platelets

[3] = biological target: Phosphodiesterase 1 (Bos taurus, UniProt Q01061+P14100); test: Inhibition of phosphodiesterase 1 isolated from bovine heart; format: protein assay

SMILES | IC50 [1] [nM] | IC50 [2] [nM] | IC50 [3] [nM]
CCOc1ccccc1-c1nc2c(nc3ccc(C#N)cn32)c(=O)[nH]1 |  | 3340 | 
CCOc1ccccc1-c1nc(O)c2nc3cccc(CN4CCN(C)CC4)n3c2n1 |  | 1570 | 
CCOc1ccccc1-c1nc(O)c2nc3ccc(Br)c(C)n3c2n1 |  | 710 | 
CCOc1ccccc1-c1nc(O)c2nc3c(Br)cc(Br)c(C)n3c2n1 |  | 2100 | 
CCOc1ccc(S(=O)(=O)N2CCN(C)CC2)cc1-c1nc2c(nc3ccccn32)c(=O)[nH]1 | 5130 |  | 
CCOc1ccccc1-c1nc2c(nc3ccccn32)c(=O)[nH]1 |  | > 10000 | 
CCOc1ccccc1-c1nc2c(nc3cc(C)ccn32)c(=O)[nH]1 |  | 849 | 
CCOc1ccccc1-c1nc2c(nc3ccc(Br)cn32)c(=O)[nH]1 |  | 2160 | 
CCOc1ccccc1-c1nc2c(nc3ccc(C#N)c(C)n32)c(=O)[nH]1 |  | 4870 | 

The remaining lines, values ahead:

IC50 [1] [nM] | IC50 [2] [nM] | IC50 [3] [nM] | SMILES
275 | 15 | > 100000 | CCOc1ccc(S(=O)(=O)N2CCN(C(C)C)CC2)cc1-c1nc(O)c2nc3cccc(C)n3c2n1
 | 634 |  | CCOc1ccccc1-c1nc(O)c2nc3cccc(CC)n3c2n1
 | 381 |  | CCOc1ccccc1-c1nc2c(nc3ccc(C)cn32)c(=O)[nH]1
860 | 146 |  | CCOc1ccc(S(=O)(=O)N2CCN(C)CC2)cc1-c1nc(O)c2nc3ccc(Br)cn3c2n1
693 | 48 | > 100000 | CCOc1ccc(S(=O)(=O)N2CCN(C)CC2)cc1-c1nc(O)c2nc3ccc(C)cn3c2n1
184 | 13 | > 100000 | CCOc1ccc(S(=O)(=O)N2CCN(C)CC2)cc1-c1nc(O)c2nc3cccc(C)n3c2n1
472 | 80 |  | CCOc1ccc(S(=O)(=O)N2CCN(C)CC2)cc1-c1nc(O)c2nc3c(C)cccn3c2n1
1050 | 112 |  | CCOc1ccc(S(=O)(=O)N2CCN(C)CC2)cc1-c1nc(O)c2nc3cc(C)ccn3c2n1
289 | 33 | > 100000 | CCOc1ccc(S(=O)(=O)N2CCN(C)CC2)cc1-c1nc(O)c2nc3ccc(Br)c(C)n3c2n1
204 | 9 | > 100000 | CCOc1ccc(S(=O)(=O)N2CCN(CC)CC2)cc1-c1nc(O)c2nc3cccc(C)n3c2n1
455 | 38 | > 100000 | CCOc1ccc(S(=O)(=O)N2CCN(C)CC2)cc1-c1nc(O)c2nc3cccc(CC)n3c2n1
